From patent publication US20150267232A1, “IN VIVO AND IN VITRO CARBENE INSERTION AND NITRENE TRANSFER REACTIONS CATALYZED BY HEME ENZYMES” (California Institute of Technology, priority 2012, published 2015)

Tests used:
[1] = Intramolecular carbene C—H insertion, substrate 4.1a; format: biochemical
[2] = P450/hemin reactions with azide 5 under anaerobic conditions (C—H amination); format: biochemical
Excerpt: Benzosultam 6, arylsulfonamide 7 (*), and dimer 12 (#) are defined in FIG. 10. […] For instance, B1SYN (e.g., P450BM3 with 23 amino acid substitutions) catalyzed over 30 TTN for form the benzosultam.
Small-Scale Amination Reactions Under Anaerobic Conditions. […]

[3] = P450/hemin reactions with azide 8 under anaerobic conditions (C—H amination); format: biochemical
Excerpt: Benzosultam 9 (a), arylsulfonamide 13 (c), alcohol 14 (b), alkene 15 and dimer 16 (d) are defined in FIG. 13. […] B1SYN (e.g., P450BM3 with 23 amino acid substitutions) catalyzed about 45 TTN for form the benzosultam.
Small-Scale Amination Reactions Under Anaerobic Conditions.
Reaction conditions were as described herein and analyzed by reverse-phase LC-MS (Agilent 1100 series LC-MSD), acetonitrile-water, using a C18 column (Peeke Scientific, Kromasil 100 5 μm, 50×4.6 mm ID). Acetonitrile gradient for 2-isopropylbenzenesulfonyl azide reactions: 10-22% (8 min), 22-60% (10 min), 60% (2 min), at 1.5 mL min^−1. Retention times: alcohol 10 (6.3 min), sulfonamide 2 (10.6 min), dimer 4 (12.3 min), azide 1 (17.6 min).

[4] = P450BM3 compilation plate screen (GC, cyclopropane peaks); format: biochemical; conditions: P450BM3 variants
[5] = Whole-cell C—H amination of azide 1; format: cell-based, E. coli BL21(DE3); conditions: lyophilized cells
[6] = cat. loading 1 mol %, reductant None

Molecule: hemin
- Yield % ([1]; 10 mM 4.1a, 5% hemin, 10 mM Na2S2O4, product 4.2a): 0%
- lactone formation via C—H bond insertion ([1]; substrates 4.1a and 4.1b, 10 μM variant or hemin at 5% catalyst loading, 16 h): not catalyzed
- TTN arylsulfonamide 7 ([2]; 1 mol %, 2 mM NADPH): 1
- TTN benzosultam 6 ([2]; 1 mol %, 2 mM NADPH): 0
- arylsulfonamide 7 (% yield) ([2]; 1 mol %, 2 mM NADPH): (1) %
- TTN arylsulfonamide 7 ([2]; 1 mol %, 2 mM Na2S2O4): 5
- TTN benzosultam 6 ([2]; 1 mol %, 2 mM Na2S2O4): 0
- arylsulfonamide 7 (% yield) ([2]; 1 mol %, 2 mM Na2S2O4): (5) %
- TTN arylsulfonamide 7 ([2]; 1 mol %, 10 mM Na2S2O4): 58
- TTN benzosultam 6 ([2]; 1 mol %, 10 mM Na2S2O4): 0
- arylsulfonamide 7 (% yield) ([2]; 1 mol %, 10 mM Na2S2O4): (58) %
- TTN arylsulfonamide 7 ([2]; 10 mol %, 2 mM Na2S2O4): 1
- TTN benzosultam 6 ([2]; 10 mol %, 2 mM Na2S2O4): 0
- arylsulfonamide 7 (% yield) ([2]; 10 mol %, 2 mM Na2S2O4): (10) %
- TTN arylsulfonamide 7 ([2]; 10 mol %, 10 mM Na2S2O4): 6
- TTN benzosultam 6 ([2]; 10 mol %, 10 mM Na2S2O4): 0
- arylsulfonamide 7 (% yield) ([2]; 10 mol %, 10 mM Na2S2O4): (60) %
- TTN arylsulfonamide 7 [2, 6]: 0
- TTN benzosultam 6 [2, 6]: 0
- TTN arylsulfonamide 13 ([3]; 1 mol %, 2 mM NADPH): 1
- TTN benzosultam 9 ([3]; 1 mol %, 2 mM NADPH): 0
- arylsulfonamide 13 (% yield) ([3]; 1 mol %, 2 mM NADPH): (1) %
- TTN arylsulfonamide 13 ([3]; 1 mol %, 2 mM Na2S2O4): 1
- TTN benzosultam 9 ([3]; 1 mol %, 2 mM Na2S2O4): 4
- arylsulfonamide 13 (% yield) ([3]; 1 mol %, 2 mM Na2S2O4): (1) %
- benzosultam 9 (% yield) ([3]; 1 mol %, 2 mM Na2S2O4): (4) %
- TTN arylsulfonamide 13 ([3]; 1 mol %, 10 mM Na2S2O4): 23
- TTN benzosultam 9 ([3]; 1 mol %, 10 mM Na2S2O4): 61
- arylsulfonamide 13 (% yield) ([3]; 1 mol %, 10 mM Na2S2O4): (23) %
- benzosultam 9 (% yield) ([3]; 1 mol %, 10 mM Na2S2O4): (61) %
- TTN arylsulfonamide 13 ([3]; 1 mol %, reductant None): 0
- TTN benzosultam 9 ([3]; 1 mol %, reductant None): 0
- TTN arylsulfonamide 13 ([3]; 10 mol %, 2 mM Na2S2O4): 0
- TTN benzosultam 9 ([3]; 10 mol %, 2 mM Na2S2O4): 0
- TTN arylsulfonamide 13 ([3]; 10 mol %, 10 mM Na2S2O4): 3
- TTN benzosultam 9 ([3]; 10 mol %, 10 mM Na2S2O4): 4
- arylsulfonamide 13 (% yield) ([3]; 10 mol %, 10 mM Na2S2O4): (30) %
- benzosultam 9 (% yield) ([3]; 10 mol %, 10 mM Na2S2O4): (40) %

B1: P450BM3: wild-type cytochrome P450BM3 from Bacillus megaterium (SEQ ID NO: 1) (protein, listed as Bacillus megaterium)
chain: TIKEMPQPKTFGELKNLPLLNTDKPVQALMKIADELGEIFKFEAPGRVTRYLSSQRLIKEACDESRFDKNLSQALKFVRDFAGDGLFTSWTHEKNWKKAHNILLPSFSQQAMKGYHAMMVDIAVQLVQKWERLNADEHIEVPEDMTRLTLDTIGLCGFNYRFNSFYRDQPHPFITSMVRALDEAMNKLQRANPDDPAYDENKRQFQEDIKVMNDLVDKIIADRKASGEQSDDLLTHMLNGKDPETGEPLDDENIRYQIITFLIAGHETTSGLLSFALYFLVKNPHVLQKAAEEAARVLVDPVPSYKQVKQLKYVGMVLNEALRLWPTAPAFSLYAKEDTVLGGEYPLEKGDELMVLIPQLHRDKTIWGDDVEEFRPERFENPSAIPQHAFKPFGNGQRACIGQQFALHEATLVLGMMLKHFDFEDHTNYELDIKETLTLKPEGFVVKAKSKKIPLGGIPSPSTEQSAKKVRKKAENAHNTPLLVLYGSNMGTAEGTARDLADIAMSKGFAPQVATLDSHAGNLPREGAVLIVTASYNGHPPDNAKQFVDWLDQASADEVKGVRYSVFGCGDKNWATTYQKVPAFIDETLAAKGAENIADRGEADASDDFEGTYEEWREHMWSDVAAYFNLDIENSEDNKSTLSLQFVDSAADMPLAKMHGAFSTNVVASKELQQPGSARSTRHLEIELPKEASYQEGDHLGVIPRNYEGIVNRVTARFGLDASQQIRLEAEEEKLAHLPLAKTVSVEELLQYVELQDPVTRTQLRAMAAKTVCPPHKVELEALLEKQAYKEQVLAKRLTMLELLEKYPACEMKFSEFIALLPSIRPRYYSISSSPRVDEKQASITVSVVSGEAWSGYGEYKGIASNYLAELQEGDTITCFISTPQSEFTLPKDPETPLIMVGPGTGVAPFRGFVQARKQLKEQGQSLGEAHLYFGCRSPHEDYLYQEELENAQSEGIITLHTAFSRMPNQPKTYVQHVMEQDGKKLIELLDQGAHFYICGDGSQMAPAVEATLMKSYADVHQVSEADARLWLQQLEEKGRYAKDVWAG
modifications: cytochrome P450NADPH-P-450 reductase precursor, cytochrome P450 (BM3), CYP102A1
- ee (cis) ([4]; (R,S)-(S,R), chiral β-CDX GC): 7
- de ([4]; diastereomeric excess = ([cis] − [trans])/([cis] + [trans])): −81
- Absolute activity ([4]; sum of the area of the cyclopropane peaks over the area of the internal standard): 0.00224

B2: ABC-CIS: BM3-CIS + C400S (protein, listed as Bacillus megaterium)
chain: TIKEMPQPKTFGELKNLPLLNTDKPVQALMKIADELGEIFKFEAPGRVTRYLSSQRLIKEACDESRFDKNLSQALKFARDFAGDGLVTSWTHEKNWKKAHNILLPSFSQQAMKGYHAMMVDIAVQLVQKWERLNADEHIEVSEDMTRLTLDTIGLCGFNYRFNSFYRDQPHPFIISMVRALDEVMNKLQRANPDDPAYDENKRQFQEDIKVMNDLVDKIIADRKARGEQSDDLLTQMLNGKDPETGEPLDDGNIRYQIITFLIAGHEATSGLLSFALYFLVKNPHVLQKVAEEAARVLVDPVPSYKQVKQLKYVGMVLNEALRLWPTAPAFSLYAKEDTVLGGEYPLEKGDEVMVLIPQLHRDKTVWGDDVEEFRPERFENPSAIPQHAFKPFGNGQRASIGQQFALHEATLVLGMMLKHFDFEDHTNYELDIKETLTLKPKGFVVKAKSKKIPLGGIPSPSTEQSAKKVRKKAENAHNTPLLVLYGSNMGTAEGTARDLADIAMSKGFAPQVATLDSHAGNLPREGAVLIVTASYNGHPPDNAKQFVDWLDQASADEVKGVRYSVFGCGDKNWATTYQKVPAFIDETLAAKGAENIADRGEADASDDFEGTYEEWREHMWSDVAAYFNLDIENSEDNKSTLSLQFVDSAADMPLAKMHGAFSTNVVASKELQQPGSARSTRHLEIELPKEASYQEGDHLGVIPRNYEGIVNRVTARFGLDASQQIRLEAEEEKLAHLPLAKTVSVEELLQYVELQDPVTRTQLRAMAAKTVCPPHKVELEALLEKQAYKEQVLAKRLTMLELLEKYPACEMKFSEFIALLPSIRPRYYSISSSPRVDEKQASITVSVVSGEAWSGYGEYKGIASNYLAELQEGDTITCFISTPQSEFTLPKDPETPLIMVGPGTGVAPFRGFVQARKQLKEQGQSLGEAHLYFGCRSPHEDYLYQEELENAQSEGIITLHTAFSRMPNQPKTYVQHVMEQDGKKLIELLDQGAHFYICGDGSQMAPAVEATLMKSYADVHQVSEADARLWLQQLEEKGRYAKDVWAG
modifications: cytochrome P450NADPH-P-450 reductase precursor, cytochrome P450 (BM3), CYP102A1
notes: BM3-CIS + C400S
- % ee [5]: 61%
- TTN [5]: 750
